Experimental data from PubChem BioAssay AID1259407 (Chemical Carcinogenesis Research Information System (CCRIS), 2018).
Activity calls are given as the source filed them. No rule for the calls is given here.

Test system: CCRIS mutagenicity, Ames/micronucleus/aberration tests
Experiment: CCRIS mutagenicity studies
[1] = Test System: AMES SALMONELLA TYPHIMURIUM, Strain/Indicator: TA1535, Metabolic Activation: NONE, Method: STANDARD PLATE
[2] = Test System: AMES SALMONELLA TYPHIMURIUM, Strain/Indicator: TA98, Metabolic Activation: NONE, Method: STANDARD PLATE
[3] = Test System: AMES SALMONELLA TYPHIMURIUM, Strain/Indicator: TA100, Metabolic Activation: NONE, Method: STANDARD PLATE
[4] = Test System: AMES SALMONELLA TYPHIMURIUM, Strain/Indicator: TA1537, Metabolic Activation: NONE, Method: STANDARD PLATE
[5] = Test System: AMES SALMONELLA TYPHIMURIUM, Strain/Indicator: TA98, Metabolic Activation: RAT, LIVER, S-9, AROCLOR 1254, Method: STANDARD PLATE

CC(=O)OC/N=[N+](/C)[O-]
mutagenic call (Test System: AMES SALMONELLA TYPHIMURIUM, Strain/Indicator: G46, Metabolic Activation: NONE, Method: PREINCUBATION): active; positive
mutagenic call [1]: active; positive
mutagenic call (Test System: CHINESE HAMSTER V-79, Strain/Indicator: V-79/OUABAIN, Metabolic Activation: NONE, Method: STANDARD PLATE): active; positive
mutagenic call (Test System: E. COLI, Strain/Indicator: WP2 UVRA, Metabolic Activation: HAMSTER, LIVER, S-9, AROCLOR 1254, Method: PREINCUBATION): inactive; negative
mutagenic call (Test System: E. COLI, Strain/Indicator: WP2 UVRA, Metabolic Activation: HAMSTER, LIVER, S-9, AROCLOR 1254, Method: STANDARD PLATE): inactive; negative
mutagenic call (Test System: E. COLI, Strain/Indicator: WP2 UVRA, Metabolic Activation: HAMSTER, LIVER, S-9, Method: PREINCUBATION): inactive; negative
mutagenic call (Test System: E. COLI, Strain/Indicator: WP2 UVRA, Metabolic Activation: HAMSTER, LIVER, S-9, Method: STANDARD PLATE): inactive; negative
mutagenic call (Test System: E. COLI, Strain/Indicator: WP2 UVRA, Metabolic Activation: MOUSE, LIVER, S-9, AROCLOR 1254, Method: PREINCUBATION): inactive; negative
mutagenic call (Test System: E. COLI, Strain/Indicator: WP2 UVRA, Metabolic Activation: MOUSE, LIVER, S-9, AROCLOR 1254, Method: STANDARD PLATE): inactive; negative
mutagenic call (Test System: E. COLI, Strain/Indicator: WP2 UVRA, Metabolic Activation: MOUSE, LIVER, S-9, Method: PREINCUBATION): inactive; negative
mutagenic call (Test System: E. COLI, Strain/Indicator: WP2 UVRA, Metabolic Activation: MOUSE, LIVER, S-9, Method: STANDARD PLATE): inactive; negative
mutagenic call (Test System: E. COLI, Strain/Indicator: WP2 UVRA, Metabolic Activation: NONE, Method: PREINCUBATION): inactive; negative
mutagenic call (Test System: E. COLI, Strain/Indicator: WP2 UVRA, Metabolic Activation: NONE, Method: STANDARD PLATE): inactive; negative
mutagenic call (Test System: E. COLI, Strain/Indicator: WP2 UVRA, Metabolic Activation: RAT, LIVER, S-9, AROCLOR 1254, Method: PREINCUBATION): inactive; negative
mutagenic call (Test System: E. COLI, Strain/Indicator: WP2 UVRA, Metabolic Activation: RAT, LIVER, S-9, AROCLOR 1254, Method: STANDARD PLATE): inactive; negative
mutagenic call (Test System: E. COLI, Strain/Indicator: WP2 UVRA, Metabolic Activation: RAT, LIVER, S-9, Method: PREINCUBATION): inactive; negative
mutagenic call (Test System: E. COLI, Strain/Indicator: WP2 UVRA, Metabolic Activation: RAT, LIVER, S-9, Method: STANDARD PLATE): inactive; negative
mutagenic call (Test System: MOUSE LYMPHOMA, Strain/Indicator: L5178Y (TK+/TK-), Metabolic Activation: NONE, Method: SUSPENSION/PLATE): active; positive
mutagenic call (Test System: MOUSE LYMPHOMA, Strain/Indicator: L5178Y (TK+/TK-), Metabolic Activation: RAT, LIVER, S-9, AROCLOR 1254, Method: SUSPENSION/PLATE): active; positive

O=C1c2cc(O)cc(O)c2C(=O)c2c(O)cc(CO)cc21
mutagenic call (Test System: AMES SALMONELLA TYPHIMURIUM, Strain/Indicator: TA1537, Metabolic Activation: RAT, LIVER, S-9, PCB, Method: STANDARD PLATE): active; positive
mutagenic call (Test System: AMES SALMONELLA TYPHIMURIUM, Strain/Indicator: TA1537, Metabolic Activation: RAT, LIVER, S-9, POLYCHLORINATED BIPHENYLS, Method: STANDARD PLATE): active; positive

C1=C\CC/C=C\CC/1.Nc1ccccc1.[Cl-].[Rh]
mutagenic call (Test System: AMES SALMONELLA TYPHIMURIUM, Strain/Indicator: TA2410, Metabolic Activation: NONE, Method: STANDARD PLATE): inactive; negative

Cc1ncc2c(n1)CCC2
mutagenic call [2]: inactive; negative
mutagenic call (Test System: AMES SALMONELLA TYPHIMURIUM, Strain/Indicator: TA98, Metabolic Activation: RAT, LIVER, S-9, Method: STANDARD PLATE): inactive; negative
mutagenic call [3]: inactive; negative
mutagenic call (Test System: AMES SALMONELLA TYPHIMURIUM, Strain/Indicator: TA100, Metabolic Activation: RAT, LIVER, S-9, Method: STANDARD PLATE): inactive; negative
mutagenic call [1]: inactive; negative
mutagenic call (Test System: AMES SALMONELLA TYPHIMURIUM, Strain/Indicator: TA1535, Metabolic Activation: RAT, LIVER, S-9, Method: STANDARD PLATE): inactive; negative
mutagenic call [4]: inactive; negative
mutagenic call (Test System: AMES SALMONELLA TYPHIMURIUM, Strain/Indicator: TA1537, Metabolic Activation: RAT, LIVER, S-9, Method: STANDARD PLATE): inactive; negative
mutagenic call (Test System: AMES SALMONELLA TYPHIMURIUM, Strain/Indicator: TA1538, Metabolic Activation: NONE, Method: STANDARD PLATE): inactive; negative
mutagenic call (Test System: AMES SALMONELLA TYPHIMURIUM, Strain/Indicator: TA1538, Metabolic Activation: RAT, LIVER, S-9, Method: STANDARD PLATE): inactive; negative

FC(F)(F)c1ccccc1CN1C2c3ccccc3-c3ccccc3C21 (stereo unspecified)
mutagenic call [3]: active; positive

CC(F)(Cl)Cl
mutagenic call (End Point: IN VIVO MICRONUCLEUS, Test System: BONE MARROW, Species: RAT, Strain/Sex: SPRAGUE-DAWLEY/FEMALE, Route: INHALATION): inactive; negative
mutagenic call (End Point: IN VIVO MICRONUCLEUS, Test System: BONE MARROW, Species: RAT, Strain/Sex: SPRAGUE-DAWLEY/MALE, Route: INHALATION): active; positive

FC(F)(Cl)C(F)(F)Cl
mutagenic call (Test System: AMES SALMONELLA TYPHIMURIUM, Strain/Indicator: TA98, Metabolic Activation: NONE, Method: GAS EXPOSURE): inactive; negative
mutagenic call (Test System: AMES SALMONELLA TYPHIMURIUM, Strain/Indicator: TA98, Metabolic Activation: RAT LIVER S-9, PHENOBARBITAL AND BETA-NAPHTHOFLAVONE (40%), Method: GAS EXPOSURE): inactive; negative
mutagenic call (Test System: AMES SALMONELLA TYPHIMURIUM, Strain/Indicator: TA100, Metabolic Activation: NONE, Method: GAS EXPOSURE): inactive; negative
mutagenic call (Test System: AMES SALMONELLA TYPHIMURIUM, Strain/Indicator: TA100, Metabolic Activation: RAT LIVER S-9, PHENOBARBITAL AND BETA-NAPHTHOFLAVONE (40%), Method: GAS EXPOSURE): inactive; negative
mutagenic call (Test System: AMES SALMONELLA TYPHIMURIUM, Strain/Indicator: TA1535, Metabolic Activation: NONE, Method: GAS EXPOSURE): inactive; negative
mutagenic call (Test System: AMES SALMONELLA TYPHIMURIUM, Strain/Indicator: TA1535, Metabolic Activation: RAT LIVER S-9, PHENOBARBITAL AND BETA-NAPHTHOFLAVONE (40%), Method: GAS EXPOSURE): inactive; negative
mutagenic call (Test System: AMES SALMONELLA TYPHIMURIUM, Strain/Indicator: TA1537, Metabolic Activation: NONE, Method: GAS EXPOSURE): inactive; negative
mutagenic call (Test System: AMES SALMONELLA TYPHIMURIUM, Strain/Indicator: TA1537, Metabolic Activation: RAT LIVER S-9, PHENOBARBITAL AND BETA-NAPHTHOFLAVONE (40%), Method: GAS EXPOSURE): inactive; negative
mutagenic call (Test System: E.COLI, Strain/Indicator: WP2UVRA, Metabolic Activation: NONE, Method: GAS EXPOSURE): inactive; negative
mutagenic call (Test System: E.COLI, Strain/Indicator: WP2UVRA, Metabolic Activation: RAT LIVER S-9, PHENOBARBITAL AND BETA-NAPHTHOFLAVONE (40%), Method: GAS EXPOSURE): inactive; negative

O=S(=O)(Nc1ccc(Cl)c(Cl)c1)c1cccc2cccnc12
mutagenic call [2]: inactive; negative
mutagenic call [5]: inactive; negative
mutagenic call [3]: inactive; negative
mutagenic call (Test System: AMES SALMONELLA TYPHIMURIUM, Strain/Indicator: TA100, Metabolic Activation: RAT, LIVER, S-9, AROCLOR 1254, Method: STANDARD PLATE): inactive; negative
mutagenic call [1]: inactive; negative
mutagenic call (Test System: AMES SALMONELLA TYPHIMURIUM, Strain/Indicator: TA1535, Metabolic Activation: RAT, LIVER, S-9, AROCLOR 1254, Method: STANDARD PLATE): inactive; negative
mutagenic call [4]: inactive; negative
mutagenic call (Test System: AMES SALMONELLA TYPHIMURIUM, Strain/Indicator: TA1537, Metabolic Activation: RAT, LIVER, S-9, AROCLOR 1254, Method: STANDARD PLATE): inactive; negative

O=[N+]([O-])c1ccc2c3ccccc3c3c([N+](=O)[O-])ccc4ccc1c2c43
mutagenic call [2]: active; positive
mutagenic call [5]: active; positive

O[C@H]1[C@H]2O[C@H]2c2c(ccc3ccccc23)[C@@H]1O
mutagenic call (Test System: AMES SALMONELLA TYPHIMURIUM, Strain/Indicator: TA97, Metabolic Activation: NONE, Method: PREINCUBATION): active; positive
mutagenic call (Test System: AMES SALMONELLA TYPHIMURIUM, Strain/Indicator: TA98, Metabolic Activation: NONE, Method: PREINCUBATION): active; positive
mutagenic call (Test System: AMES SALMONELLA TYPHIMURIUM, Strain/Indicator: TA100, Metabolic Activation: NONE, Method: PREINCUBATION): active; positive
mutagenic call [3]: active; positive
mutagenic call (Test System: AMES SALMONELLA TYPHIMURIUM, Strain/Indicator: TA104, Metabolic Activation: NONE, Method: PREINCUBATION): active; positive
mutagenic call (Test System: CHINESE HAMSTER V-79, Strain/Indicator: V-79/6-THIOGUANINE, Metabolic Activation: NONE): active; positive
